We go through 15 compounds from patent US8343961B2, “Substituted heterocyclic compounds” (ArQule, Inc., priority 2009, dated 2013).

Assay [1] relates to DLD-1. In words: MTS Cellular Assay, DLD-1. Type of assay: cell-based. The conditions noted are these: Homo sapiens, DLD-1, 72 hours. How it is done: (§1) Cells were maintained at 37° C., 5% CO2 in DMEM media supplemented with 1% fetal bovine serum, penicillin/streptomycin and fungizone (Invitrogen). Cells were seeded into 96-well tissue culture plates at 3000 per well and cultured at 37° C. for 18 hours. Test compounds were dissolved and diluted to 300× in DMSO then further diluted 1:40 in DMEM before addition to cells (1:7.5 dilution). Cells were incubated with test compounds for 72 hours followed by incubation with tetrazolium compound (3-(4,5-dimethylthiazol-2-yl)-5-(3-carboxymethoxyphenyl)-2-(4-sulfophenyl)-2H-tetrazolium, inner salt; MTS) and the electron coupling reagent, phenazine methosulfate (PMS) for 4 hours. […] The ability of compounds to inhibit cell growth in this assay is correlated with the reduction of dehydrogenase enzyme activity found in metabolically active cells. The measurement of the absorbance of the formazan was assessed using an ENVISION™ (Perkin Elmer) microplate reader at 492 nm. The calculated IC50 value is the concentration of the test compound that causes a 50% decrease in the absorbance.

Assay [2] relates to MDA-MB-231. The experiment in a line: MTS Cellular Assay, MDA-MB-231. The class given is cell-based. Particulars: Homo sapiens, MDA-MB-231, 72 hours. How it is done:
as §1

For assay [3], the system named is KATO III. In words: MTS Cellular Assay, KATO III. The class given is cell-based. Particulars: Homo sapiens, 72 hours. How it is done:
as §1

Assay [4] relates to NCI-H1299. The experiment in a line: MTS Cellular Assay, NCI-H1299. Type of assay: cell-based. The conditions noted are these: Homo sapiens, NCI-H1299, 72 hours. As to the method:
as §1

The target in assay [5] is T1, EphA8 (Homo sapiens, UniProt P29322).
T1 sequence (P29322 28-1005): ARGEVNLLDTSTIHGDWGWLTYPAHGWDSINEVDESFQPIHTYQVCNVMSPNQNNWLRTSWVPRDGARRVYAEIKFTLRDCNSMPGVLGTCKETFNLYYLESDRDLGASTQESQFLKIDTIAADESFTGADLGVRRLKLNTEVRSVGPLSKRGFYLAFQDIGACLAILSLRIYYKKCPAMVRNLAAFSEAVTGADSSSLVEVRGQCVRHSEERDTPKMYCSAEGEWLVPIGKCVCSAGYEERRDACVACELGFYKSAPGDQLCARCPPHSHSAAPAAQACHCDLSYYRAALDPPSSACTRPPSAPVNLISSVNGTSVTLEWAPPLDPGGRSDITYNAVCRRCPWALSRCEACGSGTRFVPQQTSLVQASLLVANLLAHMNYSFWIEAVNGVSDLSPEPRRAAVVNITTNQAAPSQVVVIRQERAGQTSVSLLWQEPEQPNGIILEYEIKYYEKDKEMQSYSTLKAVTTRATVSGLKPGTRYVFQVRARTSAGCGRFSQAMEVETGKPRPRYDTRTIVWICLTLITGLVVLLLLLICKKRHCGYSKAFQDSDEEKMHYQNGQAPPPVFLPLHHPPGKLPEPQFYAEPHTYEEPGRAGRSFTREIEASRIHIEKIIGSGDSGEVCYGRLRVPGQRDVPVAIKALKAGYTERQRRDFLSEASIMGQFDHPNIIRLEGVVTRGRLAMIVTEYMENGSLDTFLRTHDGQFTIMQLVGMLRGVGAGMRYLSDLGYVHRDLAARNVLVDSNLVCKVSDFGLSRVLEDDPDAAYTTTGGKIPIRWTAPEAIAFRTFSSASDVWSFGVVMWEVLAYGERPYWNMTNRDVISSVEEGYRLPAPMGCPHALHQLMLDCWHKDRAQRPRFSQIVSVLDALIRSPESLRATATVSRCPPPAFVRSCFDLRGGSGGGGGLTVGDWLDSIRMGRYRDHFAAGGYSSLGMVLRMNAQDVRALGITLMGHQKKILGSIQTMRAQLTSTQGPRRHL
The experiment in a line: EphA8 Kinase Activity Assay. The class given is biochemical. Particulars: read-out: EphA8, % INH, at 30 uM. As to the method:
Nunc Maxisorb plates are coated with streptavidin by overnight incubation with 100 μL per well of 1 μg/ml Streptavidin in DPBS. Prior to the start of the experiment, the plates are washed with TBST (3×200 μL) and blocked for at least 1 hour by adding 150 μL of 5% BSA/TBST. The plates are washed with TBST (3×200 μL/well) and left dry immediately before the capture step.
The test articles and control (Staurosporine) are prepared using the following assay buffer @ 3× desired final concentration (50 mM Tris-HCl, 0.02 mg/ml BSA, 10 mM MgCl2, 0.1 mM Na3VO4, 1 mM EGTA, 12.5 μM ATP, 0.01% NP-40, 1 mM DTT in 10% glycerol/water). In a reaction plate are added rapidly 20 μl test article (or control) and 20 μl EphA8 (0.12 ng/μl final concentration). The plate is incubated for 15 minutes. To the reaction plate is added 20 μl of Pyk-2 (0.75 ng/μl final concentration). The plate is incubated at room temperature for one hour. From the reaction plate, 50 μl is transferred to the streptavidin coated plate. The capture plate is incubated at room temperature for 30 minutes, then washed 6× with TBST. To the capture plate is added 100 μL/well of Cell Signaling anti-phospho tyrosine at a dilution of 1:3000 in 2% BSA/TBST. The plate is incubated for one hour at room temperature then washed 6× with TBST. To the capture plate is added 100 μL/well of Alkaline Phosphatase Tagged Goat anti Mouse Antibody at a dilution of 1:4000 in 2% BSA/TBST. The plate is incubated for one hour at room temperature then washed 6× with TBST. The fluorescent readout is initiated by the addition of 100 μl/well of Attophos reagent (6 mg/10 mL). The reading is done on the Perkin Elmer Envision system.

The subject of assay [6] is PC-3. In words: MTS Cellular Assay, PC-3. Particulars: Homo sapiens, PC-3, 72 hours. The class given is cell-based. As to the method:
as §1

Assay [7] concerns PACA-2. In words: MTS Cellular Assay, PACA-2. The conditions noted are these: PACA-2, 72 hours. Type of assay: cell-based. How it is done: as §1

In the case of `Nc1nc(N2CCN(Cc3ccc(Cl)cc3Cl)c3ccccc3C2)c2cn[nH]c2n1` [Compound 32, 4-[1-(2,4-dichlorobenzyl)-1,2,3,5-tetrahydro-4H-1,4-benzodiazepin-4-yl]-1H-pyrazolo[3,4-d]pyrimidin-6-amine], the inhibition at 10 µM in assay [1] was over 79%; in assay [2], under 50%; in assay [3], 50 to 79%; in assay [4], over 79%; in assay [6], under 50%; in assay [7] it was under 50%. Moreover, the inhibition at 30 µM in assay [5] is under 50%.

As for `Nc1nc(N2CCN(Cc3ccccc3Cl)c3ccccc3C2)c2cn[nH]c2n1` [Compound 14, 4-[1-(2-chlorobenzyl)-1,2,3,5-tetrahydro-4H-1,4-benzodiazepin-4-yl]-1H-pyrazolo[3,4-d]pyrimidin-6-amine], the inhibition at 10 µM is over 79% in assay [1]; over 79% in assay [2]; over 79% in assay [3]; 50 to 79% in assay [4]; over 79% in assay [6]; under 50% in assay [7]. Moreover, in assay [5], the inhibition at 30 µM is under 50%.

For `COc1ccc(OC)c(CN2CCN(c3nc(N)nc4[nH]ncc34)Cc3ccccc32)c1` [Compound 36, 4-[1-(2,5-dimethoxybenzyl)-1,2,3,5-tetrahydro-4H-1,4-benzodiazepin-4-yl]-1H-pyrazolo[3,4-d]pyrimidin-6-amine], the inhibition at 10 µM in assay [1], in assay [2], in assay [3], in assay [4], in assay [6] and in assay [7] was over 79% throughout. Also, the inhibition at 30 µM in assay [5] was under 50%.

Turning to `COc1ccc(CN2CCN(c3nc(N)nc4[nH]ncc34)Cc3ccccc32)cc1OC` [Compound 28, 4-[1-(3,4-dimethoxybenzyl)-1,2,3,5-tetrahydro-4H-1,4-benzodiazepin-4-yl]-1H-pyrazolo[3,4-d]pyrimidin-6-amine], the inhibition at 10 µM in assay [1], in assay [2], in assay [3], in assay [4], in assay [6] and in assay [7] was over 79% each time. In addition, the inhibition at 30 µM in assay [5] is under 50%.

Take `Nc1nc(N2CCN(Cc3cccc(C(F)(F)F)c3)c3ccccc3C2)c2cn[nH]c2n1` [Compound 21, 4-{1-[3-(trifluoromethyl)benzyl]-1,2,3,5-tetrahydro-4H-1,4-benzodiazepin-4-yl}-1H-pyrazolo[3,4-d]pyrimidin-6-amine]: the inhibition at 10 µM in assay [1] was over 79%; in assay [2] it was over 79%; in assay [3], over 79%; in assay [4], under 50%; in assay [6], over 79%; in assay [7] it was under 50%. Also, the inhibition at 30 µM in assay [5] was under 50%.

`Nc1nc(N2CCN(Cc3ccc(Cl)cc3)c3ccccc3C2)c2cn[nH]c2n1` [Compound 23, 4-[1-(4-chlorobenzyl)-1,2,3,5-tetrahydro-4H-1,4-benzodiazepin-4-yl]-1H-pyrazolo[3,4-d]pyrimidin-6-amine]: the inhibition at 10 µM was over 79% in assay [1]; 50 to 79% in assay [2]; under 50% in assay [3]; over 79% in assay [4]; under 50% in assay [6]; under 50% in assay [7]. For the same compound, the inhibition at 30 µM in assay [5] was in the range of 50 to 79%.

In the case of `Nc1nc(N2CCN(CCCc3cccc(F)c3)c3ccccc3C2)c2nc[nH]c2n1` [Compound 39, 6-{1-[3-(3-fluorophenyl)propyl]-1,2,3,5-tetrahydro-4H-1,4-benzodiazepin-4-yl}-9H-purin-2-amine], the inhibition at 10 µM in assay [1], in assay [2], in assay [3], in assay [4], in assay [6] and in assay [7] was over 79% in each case. Further, in assay [5], the inhibition at 30 µM was under 50%.

With `COc1cccc(CN2CCN(c3nc(N)nc4[nH]cnc34)Cc3ccccc32)c1` [Compound 2, 6-[1-(3-methoxybenzyl)-1,2,3,5-tetrahydro-4H-1,4-benzodiazepin-4-yl]-9H-purin-2-amine], the inhibition at 30 µM in assay [5] is under 50%.

For the compound `Cc1ccccc1CN1CCN(c2nc(N)nc3[nH]ncc23)Cc2ccccc21` [Compound 12, 4-[1-(2-methylbenzyl)-1,2,3,5-tetrahydro-4H-1,4-benzodiazepin-4-yl]-1H-pyrazolo[3,4-d]pyrimidin-6-amine], the inhibition at 30 µM in assay [5] is under 50%.

With `Nc1nc(N2CCN(Cc3cccc(Cl)c3)c3ccccc3C2)c2cn[nH]c2n1` [Compound 25, 4-[1-(3-chlorobenzyl)-1,2,3,5-tetrahydro-4H-1,4-benzodiazepin-4-yl]-1H-pyrazolo[3,4-d]pyrimidin-6-amine], the inhibition at 30 µM in assay [5] was under 50%.

With `Nc1nc(N2CCN(Cc3ccc(Cl)c(Cl)c3)c3ccccc3C2)c2nc[nH]c2n1` [Compound 42, 6-[1-(3,4-dichlorobenzyl)-1,2,3,5-tetrahydro-4H-1,4-benzodiazepin-4-yl]-9H-purin-2-amine], the inhibition at 30 µM in assay [5] is under 50%.

For the compound `CC(C)c1ccc(CN2CCN(c3nc(N)nc4[nH]cnc34)Cc3ccccc32)cc1` [Compound 3, 6-[1-(4-isopropylbenzyl)-1,2,3,5-tetrahydro-4H-1,4-benzodiazepin-4-yl]-9H-purin-2-amine], in assay [5], the inhibition at 30 µM is under 50%.

For the compound `COc1ccc(CN2CCN(c3nc(N)nc4[nH]cnc34)Cc3ccccc32)cc1OC` [Compound 27, 6-[1-(3,4-dimethoxybenzyl)-1,2,3,5-tetrahydro-4H-1,4-benzodiazepin-4-yl]-9H-purin-2-amine], in assay [5], the inhibition at 30 µM is under 50%.

For `Nc1nc(N2CCN(Cc3ccc(F)c(F)c3)c3ccccc3C2)c2nc[nH]c2n1` [Compound 46, 6-[1-(3,4-difluorobenzyl)-1,2,3,5-tetrahydro-4H-1,4-benzodiazepin-4-yl]-9H-purin-2-amine], the inhibition at 30 µM in assay [5] is under 50%.

With `COc1cc2c(cc1OC)C(CCc1ccccc1)N(c1nc(N)nc3[nH]ncc13)CC2` (stereo not drawn) [Compound 51, 4-[6,7-dimethoxy-1-(2-phenylethyl)-3,4-dihydroisoquinolin-2(1H)-yl]-1H-pyrazolo[3,4-d]pyrimidin-6-amine], the inhibition at 30 µM in assay [5] was under 50%.
